Test results as given in ChEMBL document CHEMBL2046382, “Synthesis, biological evaluation of 5-carbomethoxymethyl-7-hydroxy-2-pentylchromone, 5-carboethoxymethyl-4',7-dihydroxyflavone and their analogues” (Bioorg Med Chem Lett, 2012).
In brackets after ≈: the same amount, converted by molar mass. Activity calls are given as the source filed them. The rule behind the calls is not given here.

Tested on: Staphylococcus aureus
Experiment: Antibacterial activity against Staphylococcus aureus MTCC 2940 by modified microtiter broth dilution method
Assay type: functional
Details: not given

| SMILES | MIC |
| --- | --- |
| COC(=O)Cc1cc(O)cc2oc(-c3ccc([N+](=O)[O-])cc3)cc(=O)c12 | 18 µg/mL (≈ 50.7 µM) |
| COC(=O)Cc1cc(O)cc2oc(-c3cc(OC)c(OC)c(OC)c3)cc(=O)c12 | 18 µg/mL (≈ 45 µM) |

Tested on: Staphylococcus aureus
Experiment: Antibacterial activity against Staphylococcus aureus MTCC 2940 at 80 ug/ml by modified microtiter broth dilution method
Assay type: functional, organism-based
Details: not given

| SMILES | Activity |
| --- | --- |
| COC(=O)Cc1cc(O)cc2oc(-c3cccc(OC)c3Cl)cc(=O)c12 | inactive |
| COC(=O)Cc1cc(O)cc2oc(-c3ccc(OC)cc3)cc(=O)c12 | inactive |
| CCOC(=O)Cc1cc(O)cc2oc(-c3ccc(O)cc3)cc(=O)c12 | inactive |

Tested on: Bacillus subtilis
Experiment: Antibacterial activity against Bacillus subtilis MTCC 121 by modified microtiter broth dilution method
Assay type: functional
Details: not given

| SMILES | MIC |
| --- | --- |
| COC(=O)Cc1cc(O)cc2oc(-c3ccc(OC)cc3)cc(=O)c12 | 9 µg/mL (≈ 26.4 µM) |
| CCOC(=O)Cc1cc(O)cc2oc(-c3ccc(O)cc3)cc(=O)c12 | 9 µg/mL (≈ 26.4 µM) |
| COC(=O)Cc1cc(O)cc2oc(-c3ccc([N+](=O)[O-])cc3)cc(=O)c12 | 18 µg/mL (≈ 50.7 µM) |
| COC(=O)Cc1cc(O)cc2oc(-c3cc(OC)c(OC)c(OC)c3)cc(=O)c12 | 9 µg/mL (≈ 22.5 µM) |

Tested on: Bacillus subtilis
Experiment: Antibacterial activity against Bacillus subtilis MTCC 121 at 80 ug/ml by modified microtiter broth dilution method
Assay type: functional, organism-based
Details: not given

| SMILES | Activity |
| --- | --- |
| COC(=O)Cc1cc(O)cc2oc(-c3cccc(OC)c3Cl)cc(=O)c12 | inactive |
| COC(=O)Cc1cc(O)cc2oc(-c3ccc([N+](=O)[O-])cc3)cc(=O)c12 | inactive |

Tested on: Staphylococcus aureus
Experiment: Antibacterial activity against Staphylococcus aureus MTCC 96 by modified microtiter broth dilution method
Assay type: functional
Details: not given

| SMILES | MIC |
| --- | --- |
| COC(=O)Cc1cc(O)cc2oc(-c3cccc(OC)c3Cl)cc(=O)c12 | 9 µg/mL (≈ 24 µM) |
| COC(=O)Cc1cc(O)cc2oc(-c3cc(OC)c(OC)c(OC)c3)cc(=O)c12 | 18 µg/mL (≈ 45 µM) |

Tested on: Staphylococcus aureus
Experiment: Antibacterial activity against Staphylococcus aureus MTCC 96 at 80 ug/ml by modified microtiter broth dilution method
Assay type: functional, organism-based
Details: not given

| SMILES | Activity |
| --- | --- |
| COC(=O)Cc1cc(O)cc2oc(-c3ccc(OC)cc3)cc(=O)c12 | inactive |
| CCOC(=O)Cc1cc(O)cc2oc(-c3ccc(O)cc3)cc(=O)c12 | inactive |
| COC(=O)Cc1cc(O)cc2oc(-c3ccc([N+](=O)[O-])cc3)cc(=O)c12 | inactive |

Tested on: Micrococcus luteus
Experiment: Antibacterial activity against Micrococcus luteus MTCC 2470 by modified microtiter broth dilution method
Assay type: functional
Details: not given

| SMILES | MIC |
| --- | --- |
| CCOC(=O)Cc1cc(O)cc2oc(-c3ccc(O)cc3)cc(=O)c12 | 9 µg/mL (≈ 26.4 µM) |
| COC(=O)Cc1cc(O)cc2oc(-c3ccc([N+](=O)[O-])cc3)cc(=O)c12 | 18 µg/mL (≈ 50.7 µM) |
| COC(=O)Cc1cc(O)cc2oc(-c3cc(OC)c(OC)c(OC)c3)cc(=O)c12 | 4 µg/mL (≈ 9.99 µM) |

Tested on: Micrococcus luteus
Experiment: Antibacterial activity against Micrococcus luteus MTCC 2470 at 80 ug/ml by modified microtiter broth dilution method
Assay type: functional, organism-based
Details: not given

| SMILES | Activity |
| --- | --- |
| COC(=O)Cc1cc(O)cc2oc(-c3cccc(OC)c3Cl)cc(=O)c12 | inactive |
| COC(=O)Cc1cc(O)cc2oc(-c3ccc(OC)cc3)cc(=O)c12 | inactive |

Tested on: Raoultella planticola
Experiment: Antibacterial activity against Klebsiella planticola MTCC 530 by modified microtiter broth dilution method
Assay type: functional
Details: not given

| SMILES | MIC |
| --- | --- |
| CCOC(=O)Cc1cc(O)cc2oc(-c3ccc(O)cc3)cc(=O)c12 | 9 µg/mL (≈ 26.4 µM) |
| COC(=O)Cc1cc(O)cc2oc(-c3ccc([N+](=O)[O-])cc3)cc(=O)c12 | 9 µg/mL (≈ 25.3 µM) |
| COC(=O)Cc1cc(O)cc2oc(-c3cc(OC)c(OC)c(OC)c3)cc(=O)c12 | 9 µg/mL (≈ 22.5 µM) |

Tested on: Raoultella planticola
Experiment: Antibacterial activity against Klebsiella planticola MTCC 530 at 80 ug/ml by modified microtiter broth dilution method
Assay type: functional, organism-based
Details: not given

| SMILES | Activity |
| --- | --- |
| COC(=O)Cc1cc(O)cc2oc(-c3cccc(OC)c3Cl)cc(=O)c12 | inactive |
| COC(=O)Cc1cc(O)cc2oc(-c3ccc(OC)cc3)cc(=O)c12 | inactive |

Tested on: Escherichia coli
Experiment: Antibacterial activity against Escherichia coli MTCC 739 by modified microtiter broth dilution method
Assay type: functional
Details: not given

| SMILES | MIC |
| --- | --- |
| COC(=O)Cc1cc(O)cc2oc(-c3ccc(OC)cc3)cc(=O)c12 | 18 µg/mL (≈ 52.9 µM) |
| CCOC(=O)Cc1cc(O)cc2oc(-c3ccc(O)cc3)cc(=O)c12 | 9 µg/mL (≈ 26.4 µM) |
| COC(=O)Cc1cc(O)cc2oc(-c3ccc([N+](=O)[O-])cc3)cc(=O)c12 | 37 µg/mL (≈ 104 µM) |
| COC(=O)Cc1cc(O)cc2oc(-c3cc(OC)c(OC)c(OC)c3)cc(=O)c12 | 18 µg/mL (≈ 45 µM) |

Tested on: Escherichia coli
Experiment: Antibacterial activity against Escherichia coli MTCC 739 at 80 ug/ml by modified microtiter broth dilution method
Assay type: functional, organism-based
Details: not given

| SMILES | Activity |
| --- | --- |
| COC(=O)Cc1cc(O)cc2oc(-c3cccc(OC)c3Cl)cc(=O)c12 | inactive |

Tested on: Pseudomonas aeruginosa
Experiment: Antibacterial activity against Pseudomonas aeruginosa MTCC 2453 by modified microtiter broth dilution method
Assay type: functional
Details: not given

| SMILES | MIC |
| --- | --- |
| COC(=O)Cc1cc(O)cc2oc(-c3ccc(OC)cc3)cc(=O)c12 | 37 µg/mL (≈ 109 µM) |
| COC(=O)Cc1cc(O)cc2oc(-c3ccc([N+](=O)[O-])cc3)cc(=O)c12 | 9 µg/mL (≈ 25.3 µM) |
| COC(=O)Cc1cc(O)cc2oc(-c3cc(OC)c(OC)c(OC)c3)cc(=O)c12 | 18 µg/mL (≈ 45 µM) |

Tested on: Pseudomonas aeruginosa
Experiment: Antibacterial activity against Pseudomonas aeruginosa MTCC 2453 at 80 ug/ml by modified microtiter broth dilution method
Assay type: functional, organism-based
Details: not given

| SMILES | Activity |
| --- | --- |
| COC(=O)Cc1cc(O)cc2oc(-c3cccc(OC)c3Cl)cc(=O)c12 | inactive |
| CCOC(=O)Cc1cc(O)cc2oc(-c3ccc(O)cc3)cc(=O)c12 | inactive |

Tested on: Radical scavenging activity
Experiment: Antioxidant activity assessed as DPPH free radical scavenging activity
Assay type: functional
Details: not given

| SMILES | EC50 |
| --- | --- |
| CCOC(=O)Cc1cc(O)cc2oc(-c3ccc(O)cc3)cc(=O)c12 | 71.11 µg/mL (≈ 209 µM) |

Tested on: not listed separately
Experiment: Antioxidant activity assessed as superoxide radical scavenging activity
Assay type: functional
Details: not given

| SMILES | EC50 |
| --- | --- |
| CCOC(=O)Cc1cc(O)cc2oc(-c3ccc(O)cc3)cc(=O)c12 | 77.71 µg/mL (≈ 228 µM) |

Tested on: not listed separately
Experiment: Antioxidant activity of the compound assessed as inhibition of lipid peroxidation
Assay type: functional
Details: not given

| SMILES | EC50 |
| --- | --- |
| CCOC(=O)Cc1cc(O)cc2oc(-c3ccc(O)cc3)cc(=O)c12 | 171.54 µg/mL (≈ 504 µM) |

Tested on: not listed separately
Experiment: Antioxidant activity in erythrocytes assessed as inhibition of hemolysis
Assay type: functional, cell-based
Details: erythrocyte

| SMILES | EC50 |
| --- | --- |
| CCOC(=O)Cc1cc(O)cc2oc(-c3ccc(O)cc3)cc(=O)c12 | 151.1 µg/mL (≈ 444 µM) |

Tested on: Radical scavenging activity
Experiment: Antioxidant activity assessed as DPPH free radical scavenging activity after 48 hrs
Assay type: functional
Details: not given

| SMILES | Activity |
| --- | --- |
| COC(=O)Cc1cc(O)cc2oc(-c3cccc(OC)c3Cl)cc(=O)c12 | inactive |
| COC(=O)Cc1cc(O)cc2oc(-c3ccc(OC)cc3)cc(=O)c12 | inactive |
| COC(=O)Cc1cc(O)cc2oc(-c3ccc([N+](=O)[O-])cc3)cc(=O)c12 | inactive |
| COC(=O)Cc1cc(O)cc2oc(-c3cc(OC)c(OC)c(OC)c3)cc(=O)c12 | inactive |

Tested on: not listed separately
Experiment: Antioxidant activity assessed as superoxide radical scavenging activity after 48 hrs
Assay type: functional
Details: not given

| SMILES | Activity |
| --- | --- |
| COC(=O)Cc1cc(O)cc2oc(-c3cccc(OC)c3Cl)cc(=O)c12 | inactive |
| COC(=O)Cc1cc(O)cc2oc(-c3ccc(OC)cc3)cc(=O)c12 | inactive |
| COC(=O)Cc1cc(O)cc2oc(-c3ccc([N+](=O)[O-])cc3)cc(=O)c12 | inactive |
| COC(=O)Cc1cc(O)cc2oc(-c3cc(OC)c(OC)c(OC)c3)cc(=O)c12 | inactive |

Tested on: not listed separately
Experiment: Antioxidant activity of the compound assessed as inhibition of lipid peroxidation after 48 hrs
Assay type: functional
Details: not given

| SMILES | Activity |
| --- | --- |
| COC(=O)Cc1cc(O)cc2oc(-c3cccc(OC)c3Cl)cc(=O)c12 | inactive |
| COC(=O)Cc1cc(O)cc2oc(-c3ccc(OC)cc3)cc(=O)c12 | inactive |
| COC(=O)Cc1cc(O)cc2oc(-c3ccc([N+](=O)[O-])cc3)cc(=O)c12 | inactive |
| COC(=O)Cc1cc(O)cc2oc(-c3cc(OC)c(OC)c(OC)c3)cc(=O)c12 | inactive |

Tested on: Erythrocyte
Experiment: Antioxidant activity in erythrocytes assessed as inhibition of hemolysis after 48 hrs
Assay type: functional, cell-based
Details: not given

| SMILES | Activity |
| --- | --- |
| COC(=O)Cc1cc(O)cc2oc(-c3cccc(OC)c3Cl)cc(=O)c12 | inactive |
| COC(=O)Cc1cc(O)cc2oc(-c3ccc(OC)cc3)cc(=O)c12 | inactive |
| COC(=O)Cc1cc(O)cc2oc(-c3ccc([N+](=O)[O-])cc3)cc(=O)c12 | inactive |
| COC(=O)Cc1cc(O)cc2oc(-c3cc(OC)c(OC)c(OC)c3)cc(=O)c12 | inactive |

Tested on: not listed separately
Experiment: Chemical stability of the compound in antioxidant reaction
Assay type: physicochemical
Details: not given

| SMILES | Stability |
| --- | --- |
| COC(=O)Cc1cc(O)cc2oc(-c3cccc(OC)c3Cl)cc(=O)c12 | Unstable |
| COC(=O)Cc1cc(O)cc2oc(-c3ccc(OC)cc3)cc(=O)c12 | Unstable |
| COC(=O)Cc1cc(O)cc2oc(-c3ccc([N+](=O)[O-])cc3)cc(=O)c12 | Unstable |
| COC(=O)Cc1cc(O)cc2oc(-c3cc(OC)c(OC)c(OC)c3)cc(=O)c12 | Unstable |

Tested on: NCI60
Experiment: Cytotoxicity against human NCI60 cells
Assay type: functional, cell-based
Details: not given

| SMILES | Activity |
| --- | --- |
| COC(=O)Cc1cc(O)cc2oc(-c3ccc(OC)cc3)cc(=O)c12 | inactive |
